# Measurements reported in PMC4037565 (Organic & biomolecular chemistry, 2013).
# Square brackets hold non-standard residues; d marks the D form. Peptide text beside a SMILES is read from it. Lys(N3) = [N-]=[N+]=NCCCC[C@H](N)C(=O)O; Orn = NCCC[C@H](N)C(=O)O; Pra = C#CC[C@H](N)C(=O)O
# What was measured:
# [1] = read-out: Kd / binding constant for ATP; parent peptide; cited from earlier work
# [2] = Solubility under NMR/CD buffer conditions; format: physicochemical; settings: 50 mM KD2PO4, pH 7, 20°C
Molecule,Kd [1],solubility (observation) [2]
Ac-RWVKVNGOWIKQ-NH2 [WKWK],170 µM,–
C#CC[C@H](NC(=O)[C@H](CCCNC(=N)N)NC(C)=O)C(=O)N[C@H](C(=O)N[C@@H](CCCCN)C(=O)N[C@H](C(=O)N[C@@H](CC(N)=O)C(=O)NCC(=O)N[C@@H](CCCN)C(=O)N[C@@H](Cc1c[nH]c2ccccc12)C(=O)N[C@H](C(=O)N[C@@H](CCCCN=[N+]=[N-])C(=O)N[C@@H](CCC(N)=O)C(N)=O)[C@@H](C)CC)C(C)C)C(C)C [NHB-rev-U] (Ac-R[Pra]VKVNG[Orn]WI[Lys(N3)]Q-NH2),–,not fully soluble and formed a gel-like substance
